Test results as given in patent US11472799B2, “Serine threonine kinase (AKT) degradation / disruption compounds and methods of use” (Icahn School of Medicine at Mount Sinai, priority 2018, dated 2022).

Tested on: AKT
Test: Western blot of AKT protein levels and downstream signaling in BT474 cells
Type: cell-based, human
Details: Western blot (FIGS. 1, 3, 4)
Method: PC-3, U87MG, HCC1143, MDA-MB-231, MDA-MB-468, BT474 and MCF-7 cell lines were purchased from ATCC. Cell lines were regularly tested in the lab for mycoplasma. All cells were cultured at 37° C. and 5% CO2. PC-3, U87MG, MDA-MB-231, MCF-7 and BT474 cells were cultured in 1×DMEM (Corning, 10-013-CV) with 10% fetal bovine serum (Atlanta Biologicals S11150) and 1× Penicillin/Streptomycin. HCC1143 cells were cultured in RPMI (Corning, 10-040-CV) medium with 10% fetal bovine serum (Atlanta Biologicals S11150) and 1× Penicillin/Streptomycin. Cells were split using 0.05% or 0.25% trypsin (Corning 25-051-Cl or 25-053-Cl, respectively) before they reached full confluence and media was changed every 3-4 days. Cells were treated with compounds individually at different concentrations for 24 hrs. Cells were treated with DMSO, VHL, or PML alone as controls.
Cells were lysed in 2× sample buffer (125 mM Tris-HCl at pH 6.8, 10% βME, 2% SDS, 20% glycerol, 0.05% Bromophenol Blue, 8 M urea). Protein lysates were loaded into 4-12% Bis-Tris gels and resolved by electrophoresis. Samples were then blotted on PVDF membrane (Millipore IPVH00010) using the wet transfer technique (Invitrogen). Membranes were blocked in 5% milk-TBST for 1 hour, washed in TBST for 10 min, and incubated in primary antibody in 5% milk-TBST or 5% BSA-TBST at 4° C. for 16 h. Membranes were rinsed (3×6 min) in TBST and incubated in horseradish peroxidase-conjugated secondary antibodies in 5% milk-TBST for 1 hour and rinsed again in TBST (3×6 min). Membranes were visualized using the chemiluminescence system (Thermo 34080, 37075) on autoradiography film (Denville E3018). Primary Antibodies: R-actin (Sigma A5316), p-AKT (Ser473 CST-9721), total AKT (CST-9272), p-S6 (Ser240/244, CST-5364), p-PRAS40 (Thr246, CST-2997). Secondary Antibodies: Mouse (Thermo 31432), Rabbit (Thermo 31460).

Compound	suppression of AKT protein level and AKT activity
C[C@@H]1C[C@@H](O)c2ncnc(N3CCN(C(=O)[C@H](CNCCC(=O)NCCOCCOCCOCCOCCNc4cccc5c4C(=O)N(C4CCC(=O)NC4=O)C5=O)c4ccc(Cl)cc4)CC3)c21 (stereo partly drawn) [XF038-176A, 3-(((S)-2-(4-chlorophenyl)-3-(4-((5R,7R)-7-hydroxy-5-methyl-6,7-dihydro-5H-cyclopenta[d]pyrimidin-4-yl)piperazin-1-yl)-3-oxopropyl)amino)-N-(14-((2-(2,6-dioxopiperidin-3-yl)-1,3-dioxoisoindolin-4-yl)amino)-3,6,9,12-tetraoxatetradecyl)propanamide]	effective in suppressing both AKT protein level and AKT activity
C[C@@H]1C[C@@H](O)c2ncnc(N3CCN(C(=O)[C@H](CNCCC(=O)NCCCCCCCCOc4cccc5c4C(=O)N(C4CCC(=O)NC4=O)C5=O)c4ccc(Cl)cc4)CC3)c21 (stereo partly drawn) [XF050-133, 3-(((S)-2-(4-chlorophenyl)-3-(4-((5R,7R)-7-hydroxy-5-methyl-6,7-dihydro-5H-cyclopenta[d]pyrimidin-4-yl)piperazin-1-yl)-3-oxopropyl)amino)-N-(8-((2-(2,6-dioxopiperidin-3-yl)-1,3-dioxoisoindolin-4-yl)oxy)octyl)propanamide]	effective in suppressing both AKT protein level and AKT activity
Cc1ncsc1-c1ccc(CNC(=O)[C@@H]2C[C@@H](O)CN2C(=O)[C@@H](NC(=O)CCCCCC(=O)N2CCN(CC[C@H](NC(=O)C3(N)CCN(c4ncnc5[nH]ccc45)CC3)c3ccc(Cl)cc3)CC2)C(C)(C)C)cc1 [XF050-17, 4-amino-N-((S)-1-(4-chlorophenyl)-3-(4-(7-(((S)-1-((2S,4R)-4-hydroxy-2-((4-(4-methylthiazol-5-yl)benzyl)carbamoyl)pyrrolidin-1-yl)-3,3-dimethyl-1-oxobutan-2-yl)amino)-7-oxoheptanoyl)piperazin-1-yl)propyl)-1-(7H-pyrrolo[2,3-d]pyrimidin-4-yl)piperidine-4-carboxamide]	effective in suppressing both AKT protein level and AKT activity
NC1(C(=O)N[C@@H](CCN2CCN(C(=O)CCOCCOCCOCCOCCOCCOCCOCCOCCOCCNc3cccc4c3C(=O)N(C3CCC(=O)NC3=O)C4=O)CC2)c2ccc(Cl)cc2)CCN(c2ncnc3[nH]ccc23)CC1 (stereo partly drawn) [XF056-35, 4-amino-N-((1S)-1-(4-chlorophenyl)-3-(4-(1-((2-(2,6-dioxopiperidin-3-yl)-1,3-dioxoisoindolin-4-yl)amino)-3,6,9,12,15,18,21,24,27-nonaoxatriacontan-30-oyl)piperazin-1-yl)propyl)-1-(7H-pyrrolo[2,3-d]pyrimidin-4-yl)piperidine-4-carboxamide]	effective in suppressing both AKT protein level and AKT activity
C[C@@H]1C[C@@H](O)c2ncnc(N3CCN(C(=O)[C@H](CNCCC(=O)NCCOCCOCCNc4cccc5c4C(=O)N(C4CCC(=O)NC4=O)C5=O)c4ccc(Cl)cc4)CC3)c21 (stereo partly drawn) [XF048-7, 3-(((S)-2-(4-chlorophenyl)-3-(4-((5R,7R)-7-hydroxy-5-methyl-6,7-dihydro-5H-cyclopenta[d]pyrimidin-4-yl)piperazin-1-yl)-3-oxopropyl)amino)-N-(2-(2-(2-((2-(2,6-dioxopiperidin-3-yl)-1,3-dioxoisoindolin-4-yl)amino)ethoxy)ethoxy)ethyl) propanamide]	effective in suppressing both AKT protein level and AKT activity
NC1(C(=O)N[C@@H](CCN2CCN(C(=O)CCOCCOCCOCCOCCNc3cccc4c3C(=O)N(C3CCC(=O)NC3=O)C4=O)CC2)c2ccc(Cl)cc2)CCN(c2ncnc3[nH]ccc23)CC1 (stereo partly drawn) [XF050-32, 4-amino-N-((1S)-1-(4-chlorophenyl)-3-(4-(1-((2-(2,6-dioxopiperidin-3-yl)-1,3-dioxoisoindolin-4-yl)amino)-3,6,9,12-tetraoxapentadecan-15-oyl)piperazin-1-yl)propyl)-1-(7H-pyrrolo[2,3-d]pyrimidin-4-yl)piperidine-4-carboxamide]	effective in suppressing both AKT protein level and AKT activity
Cc1ncsc1-c1ccc([C@H](C)NC(=O)[C@@H]2C[C@@H](O)CN2C(=O)[C@@H](NC(=O)CCCCCCCCCC(=O)N2CCN(CC[C@H](NC(=O)C3(N)CCN(c4ncnc5[nH]ccc45)CC3)c3ccc(Cl)cc3)CC2)C(C)(C)C)cc1 [XF050-167, 4-amino-N-((S)-1-(4-chlorophenyl)-3-(4-(11-(((S)-1-((2S,4R)-4-hydroxy-2-(((S)-1-(4-(4-methylthiazol-5-yl)phenyl)ethyl)carbamoyl)pyrrolidin-1-yl)-3,3-dimethyl-1-oxobutan-2-yl)amino)-11-oxoundecanoyl)piperazin-1-yl)propyl)-1-(7H-pyrrolo[2,3-d]pyrimidin-4-yl)piperidine-4-carboxamide]	effective in suppressing both AKT protein level and AKT activity
NC1(C(=O)N[C@@H](CCN2CCN(C(=O)CCOCCOCCOCCNc3cccc4c3C(=O)N(C3CCC(=O)NC3=O)C4=O)CC2)c2ccc(Cl)cc2)CCN(c2ncnc3[nH]ccc23)CC1 (stereo partly drawn) [XF050-31, 4-amino-N-((1S)-1-(4-chlorophenyl)-3-(4-(3-(2-(2-(2-((2-(2,6-dioxopiperidin-3-yl)-1,3-dioxoisoindolin-4-yl)amino)ethoxy)ethoxy)ethoxy)propanoyl)piperazin-1-yl)propyl)-1-(7H-pyrrolo[2,3-d]pyrimidin-4-yl)piperidine-4-carboxamide]	effective in suppressing both AKT protein level and AKT activity
NC1(C(=O)N[C@@H](CCN2CCN(C(=O)CCOCCOCCNc3cccc4c3C(=O)N(C3CCC(=O)NC3=O)C4=O)CC2)c2ccc(Cl)cc2)CCN(c2ncnc3[nH]ccc23)CC1 (stereo partly drawn) [XF050-30, 4-amino-N-((1S)-1-(4-chlorophenyl)-3-(4-(3-(2-(2-((2-(2,6-dioxopiperidin-3-yl)-1,3-dioxoisoindolin-4-yl)amino)ethoxy)ethoxy)propanoyl)piperazin-1-yl)propyl)-1-(7H-pyrrolo[2,3-d]pyrimidin-4-yl)piperidine-4-carboxamide]	effective in suppressing both AKT protein level and AKT activity
NC1(C(=O)N[C@@H](CCN2CCN(C(=O)CCOCCOCCOCCOCCOCCOCCOCCOCCNc3cccc4c3C(=O)N(C3CCC(=O)NC3=O)C4=O)CC2)c2ccc(Cl)cc2)CCN(c2ncnc3[nH]ccc23)CC1 (stereo partly drawn) [XF056-34, 4-amino-N-((1S)-1-(4-chlorophenyl)-3-(4-(1-((2-(2,6-dioxopiperidin-3-yl)-1,3-dioxoisoindolin-4-yl)amino)-3,6,9,12,15,18,21,24-octaoxaheptacosan-27-oyl)piperazin-1-yl)propyl)-1-(7H-pyrrolo[2,3-d]pyrimidin-4-yl)piperidine-4-carboxamide]	effective in suppressing both AKT protein level and AKT activity
C[C@@H]1C[C@@H](O)c2ncnc(N3CCN(C(=O)[C@H](CNCCNC(=O)CCOCCOCCOCCOCCOCCNc4cccc5c4C(=O)N(C4CCC(=O)NC4=O)C5=O)c4ccc(Cl)cc4)CC3)c21 (stereo partly drawn) [XF048-4, N-(2-(((S)-2-(4-chlorophenyl)-3-(4-((5R,7R)-7-hydroxy-5-methyl-6,7-dihydro-5H-cyclopenta[d]pyrimidin-4-yl)piperazin-1-yl)-3-oxopropyl)amino)ethyl)-1-((2-(2,6-dioxopiperidin-3-yl)-1,3-dioxoisoindolin-4-yl)amino)-3,6,9,12,15-pentaoxaoetadecan-18-amide]	effective in suppressing both AKT protein level and AKT activity
